The source of these data is patent publication US6908934B2, “Therapeutic compounds for treating dyslipidemic conditions” (Merck & Co., Inc., priority 2001, dated 2005).

This test has as its system ABCA1 mRNA. Description: cells. In kind it is cell-based. The following applies: Primary macrophage, human primary macrophages, 18 h + 6 h treatment, vs DMSO control, read-out: Fold Induction of ABCA1 mRNA (Mean ± SEM). As for the experimental part:
Induction of ABCA1 mRNA Levels
Human Primary Macrophages were used to test the ability of LXR ligands to induce the expression of ABCA1 mRNA. The collection and purification of monocytes and their subsequent differentiation into macrophages by culturing in Teflon jars for 7-9 days was performed according to Wright and Silverstein J. Exp. Med. V156, October 1982 pp 1149-1164. Cells were harvested from the Teflon jars and seeded into appropriate vessels in RPMI1640 plus 12% human serum and antibiotics. Cells were allowed to recover overnight before treatment. Treatment was for 18 hours with the described compounds, followed by a re-application of fresh compounds for an additional 6 hours in DMEM minus Phenol Red with 10% charcoal stripped FCS. The cells were harvested and total RNA prepared using the phenol/guanidine isothiocyanate method as supplied and described by Molecular Research Center, Inc. (TRI REAGENT® Cat. No. TR 118). ABCA1 mRNA levels in the total RNA were measured using the TaqMan® mRNA quantitation system, following protocols published by the manufacturer (Perkin-Elmer). The oligonucleotide PCR primers used to detect ABCA1 were:
The oligonucleotide probe used was:
6FAM-[…]-TAMRA ABCA1 mRNA levels in each sample were normalized to the mRNA levels for the 23 kDa highly basic protein. The oligonucleotide PCR primers used to detect the 23 kDa highly basic protein were: […]

For `CC(C)CC[C@@H](O)[C@@H](C)[C@H]1CC[C@H]2[C@@H]3CC=C4C[C@@H](O)CC[C@]4(C)[C@H]3CC[C@]12C` [22-(R)-hydroxycholesterol], the fold induction at 10 µM is 8 ± 1.37.
